Patent US10774071B2, “PD-1/PD-L1 inhibitors” (Gilead Sciences, Inc., priority 2018, dated 2020)
pIC50: −log10 of the molar value. Like-named read-outs stand apart in the source and are kept apart here.

Experiments:
PD-1/PD-L1 = PD-1/PD-L1 (Homo sapiens (Human), UniProt Q9NZQ7); experiment: PD-1/PD-L1 biochemical protein-protein interaction assay (ALPHA); format: binding; details: read-out: IC50 PD-L1-PD1
PD-L1 = PD-L1 (Homo sapiens (Human), UniProt Q9NZQ7); experiment: PD-L1/PD-L1 dimerization biochemical protein-protein interaction assay (ALPHA); format: binding; details: read-out: AC50 PDL1 Dimer 1 nM
[1] = 0.3 nM His tagged PD-L1, 2.5 nM biotinylated Fc-PD-1, readings of 0.064 nM are equal to or less than 0.064 nM
[2] = 0.5 nM His tagged PD-L1 and 0.5 nM FLAG tagged PD-L1, Table 4A
[3] = 0.3 nM His tagged PD-L1, 2.5 nM biotinylated Fc-PD-1, Table 3B
[4] = 0.5 nM His tagged PD-L1 and 0.5 nM FLAG tagged PD-L1, Table 4B

PD-1/PD-L1, sequence (Q9NZQ7 19-238): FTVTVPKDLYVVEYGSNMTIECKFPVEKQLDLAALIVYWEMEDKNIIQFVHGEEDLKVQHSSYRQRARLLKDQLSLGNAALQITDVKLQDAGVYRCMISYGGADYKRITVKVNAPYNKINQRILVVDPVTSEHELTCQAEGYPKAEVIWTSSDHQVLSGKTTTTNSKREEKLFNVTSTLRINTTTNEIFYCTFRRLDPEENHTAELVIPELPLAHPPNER
PD-L1, sequence (Q9NZQ7 19-238): as above
PD-L1, sequence (Q9NZQ7 19-238): as above

Row | SMILES | pIC50 (PD-1/PD-L1; [1]) | AC50 (PD-L1; [2]) | pIC50 (PD-1/PD-L1; [3]) | AC50 (PD-L1; [4])
1 | COc1nc(-c2cccc(-c3cccc4c3CC[C@@H]4Nc3nc(OC)c(CN[C@@H](C)C(=O)N(C)C)nc3C(F)(F)F)c2Cl)ccc1CNC[C@@H]1CCC(=O)N1 [A-97] | ≥ 10.19 | 6.28 nM | – | –
2 | COc1nc(-c2cccc(-c3cccc4c3CC[C@@H]4Nc3nc(OC)c(CNC4(C(=O)O)CC4)nc3C(F)(F)F)c2Cl)ccc1CNC[C@H]1C[C@](C)(O)C1 [A-85] | ≥ 10.19 | 42.5 nM | – | –
3 | COc1nc(-c2cccc(-c3cccc4c3CC[C@@H]4Oc3nc(OC)c(CN[C@H](C(=O)O)C(C)C)cc3C(F)(F)F)c2Cl)ccc1CN[C@H]1C[C@](C)(O)C1 [B-212] | – | – | 10.19 | 17.5 nM
4 | COc1nc(-c2cccc(-c3cccc4c3CC[C@@H]4Oc3nc(OC)c(CN4CCC[C@]4(C)C(=O)O)cc3C(F)(F)F)c2Cl)ccc1CNC[C@@H]1CCC(=O)N1 [B-8] | – | – | 10.19 | 13.2 nM
5 | COc1nc(-c2cccc(-c3cccc4c3CC[C@@H]4Oc3nc(OC)c(CN4CC[C@@H](C(=O)N=S(C)(=O)N(CC(F)(F)F)CC(F)(F)F)C4)cc3Cl)c2Cl)ccc1CNC[C@@H]1CCC(=O)N1 (stereo partly shown) [B-160] | – | – | 9.27 | 309 nM
6 | COc1nc(-c2cccc(-c3cccc4c3CC[C@@H]4Oc3nc(OC)c(CN4CC5CCC(C(=O)O)(C5)C4)cc3Cl)c2Cl)ccc1CNC[C@@H]1CCC(=O)N1 (stereo partly shown) [B-11] | – | – | 10.18 | 71.4 nM
7 | COc1nc(-c2cccc(-c3cccc4c3CC[C@@H]4Oc3nc(OC)c(CN4CC[C@@](C)(C(=O)O)C4)cc3C(F)(F)F)c2Cl)ccc1CN[C@H]1C[C@](C)(O)C1 [B-213] | – | – | 10.19 | 17 nM
8 | COc1nc(O[C@H]2CCc3c(-c4cccc(-c5ccc(CNC[C@@H]6CCC(=O)N6)c(OCC#N)n5)c4Cl)cccc32)c(Cl)cc1CN1CC[C@@H](C(=O)O)C1 [B-19] | – | – | 10.19 | 9.33 nM
9 | COc1nc(-c2cccc(-c3cccc4c3CC[C@@H]4Oc3nc(OC)c(CNC(C)(C)CC(=O)O)cc3Cl)c2Cl)ccc1CNC[C@@H]1CCC(=O)N1 [B-197] | – | – | 10.19 | 12.5 nM
10 | COc1nc(O[C@H]2CCc3c(-c4cccc(-c5ccc(CNC[C@@H]6CCC(=O)N6)c(Cl)c5)c4Cl)cccc32)c(Cl)cc1CNC1(C(=O)O)CC1 [B-116] | – | – | 10.19 | 35.5 nM
11 | COc1nc(O[C@H]2CCc3c(-c4cccc(-c5cc(C)c(CN6CC[C@@H](C(=O)O)C6)c(OC)n5)c4Cl)cccc32)c(Cl)cc1CNC[C@@H]1CCC(=O)N1 [B-133] | – | – | 10.19 | 99.1 nM
12 | COc1nc(-c2cccc(-c3cccc4c3CC[C@@H]4Oc3nc(OC)c(CNC[C@H]4C[C@H](O)C4)cc3C(F)(F)F)c2Cl)ccc1CNC[C@@H]1CCC(=O)N1 [B-262] | – | – | 10.19 | 2.2 nM
13 | COc1nc(-c2cccc(-c3cccc4c3CC[C@@H]4Nc3nc(OC)c(CNCC(=O)O)nc3C(F)(F)F)c2Cl)ccc1CNC[C@@H]1CCC(=O)N1 [A-107] | ≥ 10.19 | 8.64 nM | – | –
14 | COc1nc(-c2cccc(-c3cccc4c3CC[C@@H]4Nc3nc(OC)c(CN4CC[C@H](C(=O)O)C4)cc3C(F)(F)F)c2Cl)ccc1CNC[C@@H]1CCC(=O)N1 [A-3] | ≥ 10.19 | 13.9 nM | – | –
15 | COc1nc(-c2cccc(-c3cccc4c3CC[C@@H]4Nc3nc(OC)c(CN4C[C@H](C)C[C@H]4C(=O)O)cc3C(F)(F)F)c2Cl)ccc1CNC[C@@H]1CCC(=O)N1 [A-78] | ≥ 10.19 | 13.5 nM | – | –
16 | COc1nc(-c2cccc(-c3cccc4c3CC[C@@H]4Oc3nc(OC)c(CN4CC5CCC4(C(=O)O)CC5)cc3C(F)(F)F)c2Cl)ccc1CNC[C@@H]1CCC(=O)N1 [B-134] | – | – | 10.19 | 0.727 nM
17 | COc1nc(-c2cccc(-c3cccc4c3CC[C@@H]4Oc3nc(OC)c(CN4CCC5CC4(C(=O)O)C5)cc3C(F)(F)F)c2Cl)ccc1CN1CC2(CCC(=O)N2)C1 [B-228] | – | – | 10.19 | 6.43 nM
18 | COc1nc(-c2cccc(-c3cccc4c3CC[C@@H]4Oc3nc(OC)c(CN4CC(C(=O)O)C5(CC5)C4)cc3Cl)c2Cl)ccc1CNC[C@@H]1CCC(=O)N1 (stereo partly shown) [B-72] | – | – | 10.19 | 25.8 nM
19 | COc1nc(-c2cccc(-c3cc(F)cc4c3CC[C@@H]4Oc3nc(OC)c(CN4CC[C@@H](C(=O)O)C4)cc3C(F)(F)F)c2Cl)ccc1CNC[C@@H]1CCC(=O)N1 [B-217] | – | – | 10.19 | 28.9 nM
20 | COc1cc(N[C@H]2CCc3c(-c4cccc(-c5ccc(CNC[C@@H]6CCC(=O)N6)c(OC)n5)c4Cl)cccc32)c(Cl)cc1CN1CC2(C(=O)O)CCC1CC2 [A-13] | 10.19 | 48.8 nM | – | –
21 | COc1nc(O[C@H]2CCc3c(-c4cccc(-c5cc(C)c(CNC[C@@H]6CCC(=O)N6)c(OC)n5)c4Cl)cccc32)c(C)cc1CNC1(C(=O)O)CC1 [B-244] | – | – | 10.19 | 18 nM
22 | COc1nc(-c2cccc(-c3cccc4c3CC[C@@H]4Oc3nc4c(nc3Cl)c(CNC[C@@H]3CCC(=O)N3)nn4C)c2Cl)ccc1CNC[C@@H]1CCC(=O)N1 [B-147] | – | – | 9.45 | 178 nM

Row | SMILES | pIC50 (PD-1/PD-L1; [1]) | AC50 (PD-L1; [2]) | pIC50 (PD-1/PD-L1; [3]) | AC50 (PD-L1; [4])
23 | COc1nc(O[C@H]2CCc3c(-c4cccc(-c5ccc(CNC[C@@H]6CCC(=O)N6)c(OCC#N)n5)c4Cl)cccc32)c(C(F)(F)F)cc1CN1CC2(C(=O)O)CCC1CC2 [B-126] | – | – | 10.19 | 3.35 nM
24 | COc1nc(-c2cccc(-c3cccc4c3CC[C@@H]4Oc3nc(OC)c(CN[C@H](C(=O)O)C4CC4)cc3C(F)(F)F)c2Cl)ccc1CNC[C@@H]1CCC(=O)N1 [B-268] | – | – | 10.19 | 3.76 nM
25 | COc1cc(N[C@H]2CCc3c(-c4cccc(-c5ccc(CNC[C@@H]6CCC(=O)N6)c(OC)n5)c4Cl)cccc32)c(Cl)cc1CN1CC[C@@H](C(=O)O)C1 [A-16] | ≥ 10.19 | 42.1 nM | – | –
26 | COc1nc(-c2cccc(-c3cccc4c3CC[C@@H]4Nc3nc(OC)c(CNCC(=O)O)nc3C(F)(F)F)c2Cl)ccc1CNC[C@@H]1CC(O)C(=O)N1 (stereo partly shown) [A-46] | ≥ 10.19 | 7.18 nM | – | –
27 | COc1nc(-c2cccc(-c3cccc4c3CC[C@@H]4Nc3nc(OC)c(CN[C@@H](C)C(=O)O)nc3C(F)(F)F)c2Cl)ccc1CN[C@H]1C[C@](C)(O)C1 [A-50] | ≥ 10.19 | 17.6 nM | – | –
28 | COc1nc(-c2cccc(-c3cccc4c3CC[C@@H]4Oc3nc(OC)c(CN4CCC(NC(C)=O)C4)cc3Cl)c2Cl)ccc1CNC[C@@H]1CCC(=O)N1 (stereo partly shown) [B-64] | – | – | 10.12 | 40.5 nM
29 | COc1nc(-c2cccc(-c3cccc4c3CC[C@@H]4Oc3nc(OC)c(CN4CCC[C@@]4(C)C(=O)O)cc3C(F)(F)F)c2Cl)ccc1CNC[C@@H]1CCC(=O)N1 [B-13] | – | – | 10.19 | 3.92 nM
30 | COc1nc(-c2cccc(-c3cccc4c3CC[C@@H]4Oc3nc(OC)c(CN[C@H](C(=O)O)C4CC4)cc3C(F)(F)F)c2Cl)ccc1CN[C@H]1C[C@](C)(O)C1 [B-255] | – | – | 10.19 | 7.89 nM
31 | COc1nc(-c2cccc(-c3cccc4c3CC[C@@H]4Oc3nc(OC)c(CNC4(C(=O)O)CC5CCC4C5)cc3Cl)c2Cl)ccc1CNC[C@@H]1CCC(=O)N1 (stereo partly shown) [B-139] | – | – | 10.19 | 10.2 nM
32 | COc1nc(-c2cccc(-c3cccc4c3CC[C@@H]4Oc3nc(OC)c(CN4CC5CCC4(C(=O)O)CC5)cc3Cl)c2Cl)ccc1CNC[C@@H]1CCC(=O)N1 [B-231] | – | – | 10.19 | 12 nM
33 | COc1cc(-c2cccc(-c3cccc4c3CC[C@@H]4Nc3nc(OC)c(CN4CC[C@@H](C(=O)O)C4)nc3C(F)(F)F)c2Cl)cc(F)c1CNC[C@@H]1CCC(=O)N1 [A-31] | ≥ 10.19 | 6.84 nM | – | –
34 | COc1nc(-c2cccc(-c3cccc4c3CC[C@@H]4Oc3nc(OC)c(CN4CCC(C)(C(=O)O)CC4)cc3Cl)c2Cl)ccc1CNC[C@@H]1CCC(=O)N1 [B-178] | – | – | 10.19 | 21.5 nM
35 | COc1nc(-c2cccc(-c3cccc4c3CC[C@@H]4Oc3nc(OC)c(CN4CC(C(=O)O)C4)nc3Cl)c2Cl)cnc1CNC[C@@H]1CCC(=O)N1 [B-44] | – | – | 10.19 | 17.9 nM
36 | COc1cc(O[C@H]2CCc3c(-c4cccc(-c5ccc(CNC[C@@H]6CCC(=O)N6)c(OC)n5)c4Cl)cccc32)c(C(F)(F)F)cc1CN1CC[C@H](C(=O)O)C1 [B-165] | – | – | 10.19 | 24.6 nM
37 | COc1nc(O[C@H]2CCc3c(-c4cccc(-c5cc(F)c(CNC[C@@H]6CCC(=O)N6)c(OC)n5)c4Cl)cccc32)c(C(F)(F)F)cc1CN1CC[C@@H](C(=O)O)C1 [B-191] | – | – | 10.19 | 12.3 nM
38 | COc1nc(-c2cccc(-c3cccc4c3CC[C@@H]4Oc3nc(OC)c(CN4CC(C(=O)O)C4)nc3Cl)c2Cl)ccc1CNC[C@@H]1CCC(=O)N1 [B-152] | – | – | 10.19 | 12.7 nM
39 | COc1nc(O[C@H]2CCc3c(-c4cccc(-c5cnc(CNC[C@@H]6CCC(=O)N6)c(OC)n5)c4Cl)cccc32)c(Cl)cc1CN1CC(C(=O)O)C1 [B-43] | – | – | 10.19 | 44.3 nM
40 | COc1nc(-c2cccc(-c3cccc4c3CC[C@@H]4Oc3nc(OC)c(CN4CC[C@@H](C(=O)O)C4)cc3Cl)c2C)ccc1CNC[C@@H]1CCC(=O)N1 [B-78] | – | – | 10.19 | 57.9 nM
41 | COc1nc(-c2cccc(-c3cccc4c3CC[C@@H]4Oc3nc(OC)c(CNC4(C(=O)O)CC4)cc3C(F)(F)F)c2Cl)ccc1CN1CC2(C1)CN(C(C)=O)C2 [B-168] | – | – | 10.19 | 11.8 nM
42 | COc1nc(-c2cccc(-c3cccc4c3CC[C@@H]4Oc3nc(OC)c(CN4C[C@@H](C)[C@H](C(=O)O)C4)cc3Cl)c2Cl)ccc1CNC[C@@H]1CCC(=O)N1 [B-107] | – | – | 10.19 | 20.1 nM
43 | COc1nc(-c2cccc(-c3cccc4c3CC[C@@H]4Oc3nc(OC)c(CN4C[C@H](C)C[C@H]4C(=O)O)cc3Cl)c2Cl)ccc1CNC[C@@H]1CCC(=O)N1 [B-185] | – | – | 10.19 | 10.9 nM
44 | CNC(=O)CNCc1cc(C(F)(F)F)c(O[C@H]2CCc3c(-c4cccc(-c5ccc(CNC[C@@H]6CCC(=O)N6)c(OC)n5)c4Cl)cccc32)nc1OC [B-250] | – | – | 9.63 | 36.4 nM
